Patent publication US5436243A, “Aminoanthraquinone derivatives to combat multidrug resistance” (priority 1993, dated 1995)
pIC50: −log10 of the molar value. Where two headings read alike, the source gives them in different places.

Tests used:
in vitro = settings: human
Description: (§1) Myelosuppression is often a dose limiting side effect of chemotherapeutic agents. […] The toxicities to human granulocyte-macrophage progenitors (CFU-GM) of 1b, 1c, and VLB was assessed by measuring inhibition of CFU-GM proliferation in cultures continuously exposed to each agent alone and compared to the toxicities to sensitive and resistant MCF7 in tumor cell clonogenic assays.
(§2) METHOD: The CFLI-GM assay measures clonal proliferation of granulocyte/macrophage precursors in semisolid agar cultures. The progeny of the granulocyte/macrophage precursors remain in proximity of the progenitor cells and form colonies. Colonies which contain greater than 40 cells after 10-12 days of culture are counted using an inverted phase contrast microscope. The tumor cell clonogenic assays measure clonal proliferation of tumor cells. In this assay, 300-500 cells are plated in 10 cm^2 wells, allowed to adhere overnight, and are treated the following day. Tumor cell colonies were counted after 10-12 days of culture. The times of exposure in these experiments are similar; however, the concentrations of FCS are 20% in the CFU-GM assay and 10% in the tumor cell clonogenic assays. The IC50's are calculated as described above for the MTT proliferation assays. (See Example 4).
(§3) To facilitate this comparison, a CFLI-GM toxicity index was calculated by dividing the CFU-GM IC50 by the respective tumor cell clonogenic IC50's in sensitive and resistant cells.

[1] = system: granulocyte-macrophage progenitors (CFU-GM); assay: cells; settings: for pIC50: Homo sapiens, CFU-GM, read-out: Continuous Exposure IC50, CFU-GM
Description: as §1, §2, §3

[2] = Partition in Bligh-Dyer extracts; format: physicochemical; settings: Bligh-Dyer extracts of treated cells
Description: At these wavelengths, there was minimal absorbance by cellular components contained in the chloroform phase. […] METHOD: […] The monolayers were treated with 25 μM 1b or 1c and incubated at 37° C. After incubating the samples for the times indicated in FIG. 1, the monolayers were washed three times with DPBS and detached using 1 ml of Trypsin-EDTA.An aliquot of the cell suspension was counted using a Coulter Counter and a 0.8 ml aliquot was extracted in a Bligh-Dyer extraction (Bligh et at., Can. J. Biochem. 31:911-916 (1959)). The absorbance of the lower chloroform phase was measured at 648 nm and 600 nm using a spectrophotometer. The amount of 1b or 1c present in the extract was quantitated from a standard curve performed in cell extracts. The data is expressed as nmol anthraquinone/10^6 cells.

MCF7 WT = assay: Tumor cell clonogenic assay, MCF7 WT; format: cell-based, human; settings: Homo sapiens
Description: The tumor cell clonogenic assays measure clonal proliferation of tumor cells. In this assay, 300-500 cells are plated in 10 cm^2 wells, allowed to adhere overnight, and are treated the following day. Tumor cell colonies were counted after 10-12 days of culture. […] The IC50's are calculated as described above for the MTT proliferation assays.

[3] = system: MCF7 Adr 10 human breast cancer cells; assay: Vinblastine accumulation assay, MCF7 Adr 10; format: cell-based
Description: [^3 H] vinblastine ([^3 H] VLB) was added to a final concentration of 100 nM and the cells were incubated for 2.5 hours. At this time, the cells were washed 3 times in ice cold PBS and lysed in buffer containing 0.1% Triton X-100. Net accumulation of [^3 H] vinblastine was expressed as pmol/mg protein. In [^3 H]

PKC [4] = assay: Micellar PKC screening assay; format: biochemical
Description: The N-substituted diaminoanthraquinone, 1b, (1,4-bis-[[3'-(diethylamino)propyl]amino]anthraquinone), was identified as a PKC inhibitor in the micellar PKC screening assay and in platelets. […] Spectrophotometric analysis of 1b and lc indicated they were excellent chromophores with absorbance maxima at 648 and 600 nm in chloroform, respectively, and extinction coefficients of approximately 20,000. At these wavelengths, there was minimal absorbance by cellular components contained in the chloroform phase. These properties of 1b and 1c were utilized to determine the time course of accumulation of these compounds in MDR MCF7 Adr 10 cells.
The activities of 1a, 1b, 1c and 1d and mitoxantrone, an anthraquinone antineoplastic drug, were evaluated in vinblastine drug accumulation assays performed by the following method. […] Mitoxantrone was identified as a PKC inhibitor in miceliar PKC assays. Compound 1d (1,4-bis-[[2-(4-morpholino)ethyl]amino]anthraquinone) was only evaluated in cellular studies.

[5] = system: MCF7 Adr 10 human breast cancer cells; assay: Time course of accumulation of anthraquinones in cells; format: cell-based; settings: 25 μM, 37° C., MCF7 Adr 10 cells
Description: METHOD: Near confluent monolayers of MCF7 ADR 10 were washed 2 times with Dulbecco's Phosphate Buffered Saline (DPBS) and 1 ml of Iscove's Modified Dulbecco's Medium (IMDM) was added to each well. The monolayers were treated with 25 μM 1b or 1c and incubated at 37° C. After incubating the samples for the times indicated in FIG. 1, the monolayers were washed three times with DPBS and detached using 1 ml of Trypsin-EDTA.An aliquot of the cell suspension was counted using a Coulter Counter and a 0.8 ml aliquot was extracted in a Bligh-Dyer extraction (Bligh et at., Can. J. Biochem. 31:911-916 (1959)). The absorbance of the lower chloroform phase was measured at 648 nm and 600 nm using a spectrophotometer. The amount of 1b or 1c present in the extract was quantitated from a standard curve performed in cell extracts. The data is expressed as nmol anthraquinone/10^6 cells.

PKC [6] = assay: PKC inhibition in platelets; format: cell-based
MCF7 Adr 10 [7] = assay: Tumor cell clonogenic assay, MCF7 ADR 10; format: cell-based, human; settings: for pIC50: Homo sapiens, NCI/ADR-RES, read-out: Continuous Exposure IC50, MCF7 ADR 10
MCF7 Adr 10 [8] = assay: 72 hour MTT proliferation assay, reversal of drug resistance in MCF7 Adr 10; format: cell-based, human; settings: [1c] 0 μM
Description: In 72 hour MTT proliferation assays using the following method, compounds 1b, 1c and 1d were assessed for inhibition of Vinca alkaloid and anthracycline drug resistance in MDR MCF7. Additionally, compounds 1b and 1c were assessed for potentiation of sensitivity to Vinca alkaloid and anthracycline drugs in the parental MCF7 WT cell line.
METHOD: 5000 cells per well were plated in 100 μl of IMDM containing 10% FCS and allowed to adhere overnight. The following day the cells were treated with N-substituted 1,4-diaminoanthraquinones and exposed to graded concentrations of antineoplastic agents. 50 μl of IMDM 10% FCS containing either vehicle or N-substituted 1,4-diaminoanthraquinones at 3 times the final tested concentration was added to cells at timed intervals. The plates were incubated for 2 hours at 37° C. to allow maximal cellular accumulation of N-substituted 1,4-diaminoanthraquinones. 40 μl aliquots of IMDM 10% FCS containing either vehicle or graded concentrations of antineoplastic drugs at 5 times the final concentration were added to treatment groups. Following this addition, 10 μl of IMDM 10% FCS containing either vehicle or N-substituted 1,4-diaminoanthraquinone at 5 times the final concentration was added to each group of wells. The cells were incubated for 72 hours after treatment. At this time the viable cells in each treatment group were estimated in a colorimetric assay by adding MTT and incubating the cells at 37° C. for 3-4 hours. The media in each well was aspirated and MTT formazan was solubilized in isopropyl alcohol acidified with 0.1 N HCl. The absorbance of the solubilized formazan was quantitated using a plate reader spectrophotometer. […] The concentrations of antineoplastic drugs which inhibited proliferation by 50% (IC50's) were estimated by calculating a percentage from the ratio: antineoplastic drug treated groups/control group absorbance and plotting the dose response curve on semilog paper. The IC50 was estimated from this curve. To assess the effects of inhibition of resistance by N-substituted 1,4-diaminoanthraquinones, the percentages were calculated relative to cell groups treated with resistance modifier alone and IC50's calculated as above. A reversal factor was calculated by dividing the IC50 to the antineoplastic drug alone (Control group) by the IC50 to antineoplastic drug in cells treated with resistance modifier.

[9] = target: P-glycoprotein in MCF7 Adr 10 membrane vesicles (Homo sapiens, UniProt P08183); settings: MCF7 Adr 10 vesicles
Sequence of P-glycoprotein in MCF7 Adr 10 membrane vesicles (P08183 whole entry): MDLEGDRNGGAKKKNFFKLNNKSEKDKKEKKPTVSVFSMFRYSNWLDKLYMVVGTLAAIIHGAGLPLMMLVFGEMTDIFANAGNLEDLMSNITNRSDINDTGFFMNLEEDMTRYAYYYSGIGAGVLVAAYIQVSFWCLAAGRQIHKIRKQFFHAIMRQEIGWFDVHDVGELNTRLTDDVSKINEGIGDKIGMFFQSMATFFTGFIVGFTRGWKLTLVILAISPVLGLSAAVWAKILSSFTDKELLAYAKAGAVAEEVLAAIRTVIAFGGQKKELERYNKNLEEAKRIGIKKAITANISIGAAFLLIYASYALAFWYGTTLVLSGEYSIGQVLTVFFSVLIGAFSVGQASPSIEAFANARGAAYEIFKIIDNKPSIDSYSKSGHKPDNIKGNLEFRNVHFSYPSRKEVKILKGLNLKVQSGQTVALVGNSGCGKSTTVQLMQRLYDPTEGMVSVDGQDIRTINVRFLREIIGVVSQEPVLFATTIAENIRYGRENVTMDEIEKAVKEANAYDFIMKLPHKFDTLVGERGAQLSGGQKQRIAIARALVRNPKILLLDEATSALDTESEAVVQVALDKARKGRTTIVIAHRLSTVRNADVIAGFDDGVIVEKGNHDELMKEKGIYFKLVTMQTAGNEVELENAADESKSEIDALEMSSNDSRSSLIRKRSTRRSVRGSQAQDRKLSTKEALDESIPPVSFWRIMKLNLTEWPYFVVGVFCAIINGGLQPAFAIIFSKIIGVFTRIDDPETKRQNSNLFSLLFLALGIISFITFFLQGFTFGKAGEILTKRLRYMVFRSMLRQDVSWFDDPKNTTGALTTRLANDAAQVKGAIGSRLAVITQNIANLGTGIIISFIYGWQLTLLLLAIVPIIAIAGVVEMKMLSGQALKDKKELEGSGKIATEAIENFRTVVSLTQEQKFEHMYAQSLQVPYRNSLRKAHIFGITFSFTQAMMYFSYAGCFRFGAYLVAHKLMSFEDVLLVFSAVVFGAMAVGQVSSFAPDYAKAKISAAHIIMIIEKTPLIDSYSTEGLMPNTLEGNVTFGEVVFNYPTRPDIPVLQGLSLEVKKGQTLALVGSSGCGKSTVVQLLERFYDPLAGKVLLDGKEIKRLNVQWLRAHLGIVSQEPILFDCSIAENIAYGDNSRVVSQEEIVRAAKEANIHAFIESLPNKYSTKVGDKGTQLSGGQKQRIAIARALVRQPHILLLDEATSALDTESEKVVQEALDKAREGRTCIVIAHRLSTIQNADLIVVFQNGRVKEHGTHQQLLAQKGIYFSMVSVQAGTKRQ

[10] = system: renal cell carcinoma cell lines, A704, SKRC7 and UOK-39
patients = settings: human, in vivo; cited from earlier work
MDR cell lines = settings: literature; cited from earlier work
[11] = system: intrinsically resistant renal cell carcinoma cell lines; settings: cited from earlier work
[12] = cfu-gm vs mcf7, CFU-GM toxicity indices

CCN(CC)CCCNc1ccc(NCCCN(CC)CC)c2c1C(=O)c1ccccc1C2=O [Compound 1b, 1,4-bis-[[3'-(diethylamino)propyl]amino]anthraquinone]
selectivity ratio (in vitro; CFU-GM Toxicity Index (CFU-GM IC50 / Tumor Cell Clonogenic IC50)): 3.5 | selectivity ratio (in vitro; [12]): > 1 | selectivity ratio (in vitro; mcf7 vs cfu-gm, sensitivity of both tumor lines relative to CFU-GM): 2 to 3.5 | pIC50 [1]: 5.85 | CFU-GM Toxicity Index (CFU-GM IC50 / Tumor Cell Clonogenic IC50) ([1]; human): 2.0 | blue color partitioning with cellular phospholipids in the lower chloroform phase [2]: > 95% | pIC50 (MCF7 WT; MCF7, tumor cell clonogenic assay, 10-12 days, read-out: Continuous Exposure IC50, MCF7 WT): 6.40 | minimal effective concentration ([3]; Homo sapiens, NCI/ADR-RES, 100 nM [3H] VLB, 2.5 hours, FIGS. 2 and 3, read-out: lowest concentration which causes a doubling of basal accumulation of vinblastine): 25 µM | activity in vinblastine accumulation assay / drug accumulation ([3]; MDR MCF7): increase vinblastine accumulation in MDR MCF7 | drug accumulation relative to other PKC inhibitors ([3]; drug accumulation assays): significantly greater activity in drug accumulation assays than other PKC inhibitors | PKC activity in micellar PKC screening assay (PKC [4]): PKC inhibitor | time of maximal accumulation of 1b and 1c [5]: about 2 hours | PKC inhibition in platelets (PKC [6]): PKC inhibitor | pIC50 (MCF7 Adr 10 [7]; tumor cell clonogenic assay, 10-12 days): 6.15 | relative sensitivity of MCF7 WT and MDR MCF7 to cytotoxicity (MCF7 Adr 10 [7]; clonogenic assays): MCF7 WT are more sensitive to cytotoxicity of 1b than MDR MCF7

CC[C@]1(O)C[C@@H]2CN(CCc3c([nH]c4ccccc34)[C@@](C(=O)OC)(c3cc4c(cc3OC)N(C)[C@H]3[C@@](O)(C(=O)OC)[C@H](OC(C)=O)[C@]5(CC)C=CCN6CC[C@]43[C@@H]65)C2)C1 [VLB, reference compound]
selectivity ratio (in vitro; [12]): < 1 | selectivity ratio (in vitro; cfu-gm vs mcf7 adr 10, toxicity to CFU-GM relative to MDR cells): ~1000 | toxicity to CFU-GM relative to drug sensitive WT cancer cells [1]: approximately twice as toxic to CFU-GM | pIC50 [1]: 9.55 | pIC50 (MCF7 WT; MCF7, read-out: Continuous Exposure IC50, MCF7 WT): 9.23 | pIC50 (MCF7 Adr 10 [8]; Homo sapiens, NCI/ADR-RES, average ± SD of 3 experiments, read-out: VLB IC50): 6.10 | Reversal Factor (VLB) (MCF7 Adr 10 [8]): 1.0 | effect of unlabeled VLB on [3H] VLB association [9]: inhibited by addition of unlabeled VLB | vinblastine IC50 in renal lines relative to vinblastine IC50 of sensitive MCF7 [10]: 10-600 fold | pIC50 (MCF7 Adr 10 [7]): 6.68

CC/C(=C(\c1ccccc1)c1ccc(OCCN(C)C)cc1)c1ccccc1 [tamoxifen]
toxicity in humans (patients): minimal neurologic toxicity that was reversible with cessation of tamoxifen | drug accumulation and reversal of resistance in MDR cell lines (MDR cell lines): can also modulate resistance of estrogen receptor-negative MDR cell lines | drug accumulation and vinblastine resistance in renal cell carcinoma [11]: increase drug accumulation and decrease vinblastine resistance
